In PMC12326382, “Discovery of a novel RSK2 inhibitor for the treatment of metastatic pancreatic cancer” (Journal of Enzyme Inhibition and Medicinal Chemistry, 2025):

Target: T1, RSK2 (Homo sapiens, UniProt P51812)
T1 construct: gene RPS6KA3
Assay: FRET kinase assay (Thermo Fisher LanthaScreen / Z'-LYTE)
Format: biochemical

T1 sequence (P51812 whole entry): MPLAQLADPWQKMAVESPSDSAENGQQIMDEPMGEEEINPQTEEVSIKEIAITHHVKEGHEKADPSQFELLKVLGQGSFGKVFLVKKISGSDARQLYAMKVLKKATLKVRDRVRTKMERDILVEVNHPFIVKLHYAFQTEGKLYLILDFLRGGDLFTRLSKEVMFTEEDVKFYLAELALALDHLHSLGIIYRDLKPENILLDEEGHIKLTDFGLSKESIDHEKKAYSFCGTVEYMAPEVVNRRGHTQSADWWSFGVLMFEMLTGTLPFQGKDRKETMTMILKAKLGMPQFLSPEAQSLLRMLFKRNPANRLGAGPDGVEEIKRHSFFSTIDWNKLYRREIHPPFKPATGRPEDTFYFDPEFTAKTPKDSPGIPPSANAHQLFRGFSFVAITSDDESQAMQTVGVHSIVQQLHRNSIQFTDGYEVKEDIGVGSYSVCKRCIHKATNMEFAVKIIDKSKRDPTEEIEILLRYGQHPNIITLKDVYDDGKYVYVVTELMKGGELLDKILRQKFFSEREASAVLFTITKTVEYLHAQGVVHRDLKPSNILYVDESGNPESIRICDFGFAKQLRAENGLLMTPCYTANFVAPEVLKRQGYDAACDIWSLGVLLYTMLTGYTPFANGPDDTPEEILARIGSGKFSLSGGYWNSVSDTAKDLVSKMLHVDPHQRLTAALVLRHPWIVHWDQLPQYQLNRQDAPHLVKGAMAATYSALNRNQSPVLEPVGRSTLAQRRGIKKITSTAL

IC50: 45.5 nM
SMILES: Cc1ccc2[nH]c(=O)c(-c3cnc(=O)[nH]n3)c(O)c2c1 [NSYSU-115]
